From US9107894B2, “Formulation to improve gastrointestinal function” (University of Florida Research Foundation, Inc., priority 2007, dated 2015) come the findings set out here.

One test deals with Caco-2 cells. The experiment in a line: Poly (I:C) induced IL-8 production in differentiated Caco-2 cells (ELISA). It is filed as cell-based, human. The protocol:
In order to determine whether DHA has an effect on inducers of inflammation other than TNFα, stimulation of another Toll-like receptor was evaluated. Polyriboinosinic polyribocytidylic acid [poly(I:C)] is a synthetic double-stranded RNA that is used experimentally to model viral infections. It has recently been identified as one of the critical stimuli for toll like receptor 3 (TLR3). The effects of n-3 PUFA on viral induced inflammation in intestinal epithelia have not been reported.
Docosahexaenoic acid (DHA, 22:6 n-3) was used as n-3 PUFA and linoleic acid (LA, 18:2 n-6) as n-6 PUFA. Differentiated Caco-2 cells were pretreated with various doses of DHA or LA for 24 hours. The cells were then treated with poly (I: C) 50 ug/ml for another 24 hours. The culture medium was collected to measure the IL-8 production by ELISA. The first experiment determined the effect of Poly (I: C) on stimulation of IL-8, a major pro-inflammatory chemokine. Poly (I:C) increased IL-8 production by 10 fold.

In a further test the test system is CINC peptide. The experiment in a line: CINC peptide in gastrostomy fed (pup-in-a-cup), LPS treated rat pups. It is filed as in vivo. The following applies: for decrease of intestinal CINC peptide: intestine. The text has this:
Using the “pup-in-a-cup” rat model, protein deprivation and supplementation with GLN or GLU in the developing rat small intestine were examined. Four groups of 6-7 d old pups were fed via a gastrostomy tube providing 100% or 25% protein (relative to mother fed rats) rat milk substitute (RMS) with and without additional GLN or glutamate (GLU) for 6 d. Pups receiving the 100% protein RMS experienced better growth than the 3 groups of pups receiving the 25% protein RMS+/−GLN/GLU supplementation.
Cytokine induced neutrophil chemoattractant (CINC) is a rodent chemokine that performs neutrophil chemoattractant functions similar to IL-8 in the human. Large quantities of this proinflammatory mediator can be detrimental.
Intestinal CINC peptide in the LPS treated pups provided 100% and 25% protein was elevated about 13 fold compared to the mother reared pups. GLN and GlU decreased intestinal CINC peptide by 73 and 80%, respectively.

The subject of the next test is CINC mRNA. The experiment in a line: CINC mRNA in small intestine by RT-PCR, protein deprived LPS treated rat pups. It is filed as in vivo. The note with it: 25% protein-fed, densitometry. The protocol: Cytokine induced neutrophil chemoattractant (CINC) is a rodent chemokine that performs neutrophil chemoattractant functions similar to IL-8 in the human. Large quantities of this proinflammatory mediator can be detrimental. […] To clarify the effects of diets on the CINC mRNA in small intestine, RT-PCR was performed.

For another test, the system named is myeloperoxidase (MPO). The test is described as follows: Intestinal myeloperoxidase activity in gastrostomy fed, LPS treated rats. It is filed as in vivo, rat. The text has this: An approximate 6-fold elevation of intestinal myeloperoxidase (MPO) activity in the gastrostomy fed, LPS treated rats was decreased by GLN and Glu by 92% and 54%, respectively.
Test [1] relates to developing rat small intestine. The experiment in a line: Pup-in-a-cup rat model: growth, villus size and tight junction proteins under protein deprivation. It is filed as in vivo. The note with it: for villus height and area: 6-7 d old pups fed rat milk substitute for 6 d; for growth of pups: 6-7 d old pups fed rat milk substitute via gastrostomy tube for 6 d. The text has this: Using the “pup-in-a-cup” rat model, protein deprivation and supplementation with GLN or GLU in the developing rat small intestine were examined. Four groups of 6-7 d old pups were fed via a gastrostomy tube providing 100% or 25% protein (relative to mother fed rats) rat milk substitute (RMS) with and without additional GLN or glutamate (GLU) for 6 d. […] Villus size is a major component of absorptive capability. […] The tight junction proteins play an integral role in paracellular permeability of the intestinal barrier, and two of these, claudin and occludin were evaluated using Western blotting.

The subject of the next test is IEC-6. The test is described as follows: Proliferation of rat intestinal crypt cells (IEC-6) in the absence of GLN. Format: cell-based. The following applies: GLN synthetase inhibited cells, all treatment doses.
For another test, the system named is H4 cells. The experiment in a line: TNFα-induced IL-8 production in H4 cells. It is filed as cell-based, human. The following applies: H4, 24 h pretreatment, TNF-α 1 μg/L for 24 h. As for the experimental part: EPA and DHA were used as n-3 PUFA and linoleic acid (LA, 18:2 n-6) as n-6 PUFA. The H4 and Caco-2 cells were pretreated with different doses of EPA, DHA and LA separately and in different combinations for 24 hours. Then TNF-α (1 μg/L for H4, 50 μg/L for Caco-2 cells) was added to cell culture medium and the cells were incubated for another 24 hours. The lower dose used in the H4 cell line reflects their exquisite sensitivity to inflammatory stimuli.
The effects of different doses of fatty acids on TNFα-induced IL-8 production were evaluated and are seen in FIGS. 2A-B.

The subject of another test is BBDP rats. The experiment in a line: Mortality due to diabetes in BBDP rats. It is filed as in vivo, rat.

Procedure for IEC-6: Studies were conducted to evaluate whether glutamate, a mixture of nucleotide monophosphates, arginine, or glucosamine could support proliferation of rat intestinal crypt cells (IEC-6) in the absence of GLN.

As for `CC/C=C\C/C=C\C/C=C\C/C=C\C/C=C\C/C=C\CCC(=O)O` [DHA, docosahexaenoic acid], the “decrease of poly (I:C)-induced IL-8 production” value in the test with Caco-2 cells (100 μM, 24 h pretreatment, poly (I:C) 50 ug/ml 24 h) was 75%.

`NC(=O)CC[C@H](N)C(=O)O` [GLN, glutamine]: in the test with CINC peptide, the “decrease of intestinal CINC peptide” value is 73% and the “plasma CINC peptide” value is “decreased plasma CINC peptide”. Moreover, the “CINC mRNA expression in small intestine” value in the test on CINC mRNA was “decreased CINC mRNA to a level similar to mother-fed animals”. The “decrease of intestinal myeloperoxidase (MPO) activity” value in the test on myeloperoxidase (MPO) turned out to be 92%. In test [1], the “villus height and area” value was “did not differ”; the growth of pups entry is listed as “neither GLN nor GLU alone can rescue the effects of protein deprivation”.

On to `N[C@@H](CCC(=O)O)C(=O)O` [Glu, glutamate], for which, in the test with CINC peptide, the “decrease of intestinal CINC peptide” value turned out to be 80% and the “plasma CINC peptide” value is listed as “but not Glu decreased plasma CINC peptide”. In the test with CINC mRNA, the “CINC mRNA expression in small intestine” value is recorded as “did not show the same effect as GLN”. The “decrease of intestinal myeloperoxidase (MPO) activity” value with myeloperoxidase (MPO) amounted to 54%. For the same molecule, in test [1], the “villus height and area” value is given as “did not differ”; the growth of pups result was “neither GLN nor GLU alone can rescue the effects of protein deprivation”. In addition, in the test on IEC-6, the proliferation result is “decrease in proliferation compared with cells treated with GLN”.

Consider `CCCCC/C=C\C/C=C\CCCCCCCC(=O)O` [LA, linoleic acid], for which the “effect on TNF-α induced IL-8 production” value in the test with H4 cells is “greater inflammatory effects on IL-8 production in H4 than in Caco-2 cells”. For the same molecule, the “poly (I:C)-induced IL-8 production” value in the test on Caco-2 cells (doses of 50 and 100 μM, 24 h pretreatment) was “did not significantly reduce IL-8 production”.

As to `CCCC(=O)[O-].[Na+]` [NaB], the “mortality due to diabetes” value in the test with BBDP rats is reported as “decrease mortality due to diabetes”.

In the case of `N=C(N)NCCC[C@H](N)C(=O)O` [arginine], the proliferation result in the test with IEC-6 is reported as “decrease in proliferation compared with cells treated with GLN”.

With `N[C@H]1C(O)O[C@H](CO)[C@@H](O)[C@@H]1O` (some centres unmarked) [glucosamine], in the test with IEC-6, the proliferation entry is “decrease in proliferation compared with cells treated with GLN”.

Regarding “Polyriboinosinic polyribocytidylic acid [Poly (I:C)]”, the “increase of IL-8 production” value in the test with Caco-2 cells (poly (I:C) 50 ug/ml, 24 hours) worked out at 10 fold.
